# Tested on: tumors from Prkci^fl/fl Prkcz^fl/fl Villin-cre (DKO) mice
# Assay: scRNAseq and IHC of DKO mouse intestinal tumors treated with PVHA or Galunisertib
# Type: in vivo
# Protocol: FIG. 3A illustrates the experimental design: Prkci^fl/flPrkcz^fl/fl (DKO) mice were treated either with PVHA (0.0375 mg/Kg twice per week) or Galunisertib (10 mg twice daily) as described. Intestinal tumors were analyzed by scRNAseq.
# To identify the mechanism of action of PVHA in the treatment of CMS4 tumors, scRNAseq was performed using 10× Genomics Chromium platform on tumors from Prkci^fl/fl Prkcz^fl/fl Villin-cre (DKO) mice (n=5) treated with PVHA for 14 weeks (n=3), as compared to those treated with Galunisertib (GAL) for 17 weeks (n=3), as shown in experimental design (FIG. 3A). Unsupervised clustering identified tumor and normal epithelial cells as well as stromal and immune cells with selective markers for each population (FIGS. 3B-3C). […] Among tumor clusters (0,4,6), a cell population with transcriptomic similarities to the recently identified “revival stem cells” (RSC; high Clu) in the vehicle treated tumors was identified (FIGS. 3F-3G).
structure (smiles),measurement,setting,value
"Cc1cccc(-c2nn3c(c2-c2ccnc4ccc(C(N)=O)cc24)CCC3)n1 [GAL, Galunisertib, reference compound]","Cd8 T cells, cell type proportion",scRNAseq T cells,increase
same,"fibroblast clusters associated with human CRC (Grem1/Sfrp1, Igf1/Cxcl14), CMS4 subtype (Sfrp2) and tumor initiation (Ptgs2/Spp1)",scRNAseq cell-type proportion,complete elimination
same,tumoral goblet population,scRNAseq goblet cells,reduction
same,"T cells, cell-type proportion",scRNAseq immune cells,increase
same,"myeloid cells, cell-type proportion",scRNAseq immune cells,decrease
same,TAN1 (anti-tumoral neutrophils),scRNAseq myeloid cells,only increased
same,TAN2 (pro-tumoral neutrophils),scRNAseq myeloid cells,without affecting
same,percentage of stromal and immune cells,"scRNAseq, PVHA 0.0375 mg/Kg twice per week, 14 weeks, Galunisertib 10 mg twice daily, 17 weeks",decreased
same,number of stromal cells,"scRNAseq, without apparent changes in cell-type proportions",reduced
